Values after ≈ are worked out from the molar mass of the structure shown. Values joined by “and” are separate entries in the source; they are usually repeats but may differ in a detail not shown here. Equal values may be shown once. Read-outs that look alike come from different tables or passages of the source.
Tests used:
[1] = system: Mycobacterium tuberculosis H37Rv (ATCC 27294); assay: Primary screening of anti-mycobacterial activity (Bactec); format: cell-based; design: % inhibition: concentration or dose not given beside the values; settings: for MIC: Mycobacterium tuberculosis
VERO cells [2] = assay: cells; settings: Chlorocebus sabaeus
M. tuberculosis H37Rv [3] = assay: Minimum bactericidal concentration (MBC) against H37Rv; format: cell-based, Mycobacterium tuberculosis
M. tuberculosis H37Rv [4] = assay: MIC determination by Microplate Alamar Blue Assay (MABA) against H37Rv; format: cell-based, Mycobacterium tuberculosis; settings: for MIC: Mycobacterium tuberculosis
M. tuberculosis Erdman = assay: MIC (MABA) against M. tuberculosis Erdman; format: cell-based; settings: Mycobacterium tuberculosis, Alamar assay
VERO cells [5] = settings: for SI (selectivity index, IC50:MIC ratio): IC50 in VERO cells to MIC H37Rv
[6] = system: M. tuberculosis Erdman (ATCC 35801); assay: Killing of M. tuberculosis Erdman in monolayers of mouse bone marrow macrophages
Procedure: Compounds were then tested for killing of M. tuberculosis Erdman (ATCC 35801) in monolayers of mouse bone marrow macrophages.

[7] = preliminary anti-TB test (primary screening), Bactec assay, read-out: MIC
[8] = preliminary anti-TB test (primary screening), Bactec assay
[9] = read-out: IC50 (overt toxicity)
[10] = H37RV, comparison with parent drug, read-out: MIC against M. tuberculosis H37Rv (determined by MABA system)
[11] = Alamar assay, actual MIC at lower concentrations, H37Rv, read-out: MIC
[12] = read-out: IC50 (reference drugs, Comments column)

COC(=O)c1cc(F)c(NC(C)=O)cc1O [Compound 11, Methyl 4-acetamido-5-fluorosalicylate]
MIC [1, 7]: > 12.5 µg/mL | % inhibition [1, 8]: 0% | Activity [1, 8]: Negative

Nc1cc(O)c(C(=O)O)cc1F [Compound 12, 4-Amino-5-fluorosalicylic Acid]
IC50 (VERO cells [2]; [9]): > 62.5 µg/mL | H37Rv MBC (M. tuberculosis H37Rv [3]): > 200 µg/mL | MIC [1]: < 12.5 µg/mL | % inhibition [1, 8]: 94% | Activity [1, 8]: Positive | % inh. (M. tuberculosis H37Rv [4]; Alamar assay, H37Rv): 94% | MIC (M. tuberculosis H37Rv [4]; [10]): ≤ 3.13 µg/mL | MIC (M. tuberculosis H37Rv [4]; [11]): 6.25 µg/mL (≈ 36.5 µM) | MIC (M. tuberculosis Erdman): 12.5 µg/mL (≈ 73 µM) | SI (selectivity index, IC50:MIC ratio) (VERO cells [5]): >10

CC(=O)Nc1ccc(/C=N/NC(N)=S)cc1F [Compound 16, 4-Acetamido-3-fluorobenzaldehyde thiosemicarbazone]
EC99 ([6]; 99% reduction in colony forming units at seven days, mouse bone marrow macrophages): >3.2 | EC90 ([6]; Mycobacterium tuberculosis, ATCC35801|ERDMAN, Bone marrow macrophage, in Mus musculus, 168 h): 1.7 µg/mL (≈ 6.69 µM) | IC50 (VERO cells [2]; [9]): > 62.5 µg/mL | H37Rv MBC (M. tuberculosis H37Rv [3]): 6.25 µg/mL | MIC [1, 7]: < 12.5 µg/mL | % inhibition [1, 8]: 99% and > 90% | Activity [1, 8]: Positive | % inh. (M. tuberculosis H37Rv [4]; Alamar assay, H37Rv): 99% | MIC (M. tuberculosis H37Rv [4]; [10]): ≤ 0.1 µg/mL | MIC (M. tuberculosis H37Rv [4]; [11]): 0.2 µg/mL (≈ 0.787 µM) | activity against M. Tuberculosis (in words) (M. tuberculosis H37Rv [4]; general statement): highly active | MIC (M. tuberculosis Erdman): 0.2 µg/mL (≈ 0.787 µM) | SI (selectivity index, IC50:MIC ratio) (VERO cells [5]): > 312.5 | SI (selectivity index, IC50:MIC ratio) (VERO cells [5]; listed as Comp. 16): >312.5 | toxicity (in words) (VERO cells [5]; general statement): non-toxic

CC(=O)Nc1ccc(/C=N/NC(N)=S)c(F)c1 [Compound 17, 4-Acetamido-2-fluorobenzaldehyde thiosemicarbazone]
MIC [1, 7]: < 6.25 µg/mL | Activity [1, 8]: Positive

CC(=O)Nc1ccc(/C=N/NC(N)=S)cc1Cl [Compound 25, 4-Acetamido-3-chlorobenzaldehyde thiosemicarbazone]
MIC [1, 7]: < 6.25 µg/mL | Activity [1, 8]: Positive

CC(=O)Nc1ccc(/C=N/NC(N)=S)cc1Br [Compound 29, 4-Acetamido-3-bromobenzaldehyde thiosemicarbazone]
MIC [1, 7]: < 6.25 µg/mL | Activity [1, 8]: Positive

CC(=O)Nc1ccc(/C=N/NC(N)=S)cc1I [Compound 34, 4-Acetamido-3-iodobenzaldehyde thiosemicarbazone]
MIC [1, 7]: < 6.25 µg/mL | Activity [1, 8]: Positive

NNC(=O)c1ccncc1 [INH, isoniazid, reference compound]
IC50 (VERO cells [2]; [12]): 602 µg/mL (≈ 4390 µM)

Nc1ccc(C(=O)O)c(O)c1 [p-aminosalicylic acid, reference compound]
MIC (M. tuberculosis H37Rv [4]; [10]): 1.25 µg/mL (≈ 8.16 µM)

CO[C@H]1/C=C/O[C@@]2(C)Oc3c(C)c(O)c4c(O)c(c(/C=N/N5CCN(C)CC5)c(O)c4c3C2=O)NC(=O)/C(C)=C\C=C\[C@H](C)[C@H](O)[C@@H](C)[C@@H](O)[C@@H](C)[C@H](OC(C)=O)[C@@H]1C [rifampicin, reference compound]
IC50 (VERO cells [2]; [12]): 77.7 µg/mL (≈ 94.4 µM) | MIC (M. tuberculosis H37Rv [4]; [11]): 0.015 µg/mL (≈ 0.0182 µM)

thiacetazone [reference compound]
MIC against M. tuberculosis H37Rv (determined by MABA system) (M. tuberculosis H37Rv [4]; comparison with parent drug): > 2.0 µg/mL
